# Experimental data as given in PMC9386204, “Design, synthesis, and in silico studies of quinoline-based-benzo[d]imidazole bearing different acetamide derivatives as potent α-glucosidase inhibitors” (Scientific Reports, 2022).
# Key:
# [1] = Concentrations of precipitation; type: physicochemical
# Excerpt: Table 1 α-Glucosidase inhibitory activity of compounds 9a–r. | column: Concentrations of precipitation (µM)
# α-glucosidase [2] = molecular target: T1, α-glucosidase (Saccharomyces cerevisiae, UniProt P53341); assay: α-Glucosidase inhibitory assay; details: for IC50: α-glucosidase inhibition, mean ± SD
# Procedure: The α-glucosidase inhibitory activities of all synthesized derivatives were assayed according to the previously reported procedure[9],[36].
# α-glucosidase [3] = molecular target: T1, α-glucosidase; assay: Enzyme kinetic studies (Lineweaver–Burk plot, secondary plot); type: biochemical; details: Km increased, Vmax unchanged
# Procedure: A Lineweaver–Burk plot was generated to identify the type of inhibition and the Michaelis–Menten constant (Km) value was determined from the plot between reciprocal of the substrate concentration (1/[S]) and reciprocal of enzyme rate (1/V) over various inhibitor concentrations. The experimental inhibitor constant (Ki) value was constructed by secondary plots of the inhibitor concentration [I] versus Km[6].
# T1 sequence (P53341 whole entry): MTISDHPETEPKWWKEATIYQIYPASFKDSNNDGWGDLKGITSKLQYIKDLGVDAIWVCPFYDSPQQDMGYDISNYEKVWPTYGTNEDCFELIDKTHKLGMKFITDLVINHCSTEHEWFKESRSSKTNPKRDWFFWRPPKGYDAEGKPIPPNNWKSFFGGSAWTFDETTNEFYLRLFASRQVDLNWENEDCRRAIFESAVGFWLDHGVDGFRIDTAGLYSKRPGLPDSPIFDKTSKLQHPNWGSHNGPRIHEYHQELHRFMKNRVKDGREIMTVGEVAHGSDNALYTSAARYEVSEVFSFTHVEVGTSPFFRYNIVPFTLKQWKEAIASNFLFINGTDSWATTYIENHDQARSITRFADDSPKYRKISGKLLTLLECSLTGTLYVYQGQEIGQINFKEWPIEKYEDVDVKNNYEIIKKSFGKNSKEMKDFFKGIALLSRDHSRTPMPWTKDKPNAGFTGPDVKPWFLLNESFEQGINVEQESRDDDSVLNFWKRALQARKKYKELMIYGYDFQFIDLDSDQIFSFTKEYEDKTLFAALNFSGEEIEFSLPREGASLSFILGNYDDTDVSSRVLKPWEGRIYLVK
Molecule,Concentrations of precipitation [1],melting point,IC50 (α-glucosidase [2]),fold loss of potency compared to 9a (α-glucosidase [2]; versus 9a),type of inhibition (α-glucosidase [3])
"O=C(CSc1nc2ccccc2cc1-c1nc2ccccc2[nH]1)Nc1c(Cl)cccc1Cl [Compound 9h, 2-((3-(1H-benzo[d]imidazol-2-yl)quinolin-2-yl)thio)-N-(2,6-dichlorophenyl)acetamide]",≥ 200 µM,188 to 190 °C,–,–,–
"CCc1ccc(NC(=O)CSc2nc3ccccc3cc2-c2nc3ccccc3[nH]2)cc1 [Compound 9m, 2-((3-(1H-benzo[d]imidazol-2-yl)quinolin-2-yl)thio)-N-(4-ethylphenyl)acetamide]",≥ 200 µM,178 to 180 °C,–,–,–
"COc1ccc(NC(=O)CSc2nc3ccccc3cc2-c2nc3ccccc3[nH]2)cc1 [Compound 9l, 2-((3-(1H-benzo[d]imidazol-2-yl)quinolin-2-yl)thio)-N-(4-methoxyphenyl)acetamide]",≥ 200 µM,191 to 193 °C,–,–,–
Cc1ccccc1NC(=O)CSc1nc2ccccc2cc1-c1nc2ccccc2[nH]1 [Compound 9j],≥ 200 µM,–,–,–,–
"O=C(CSc1nc2ccccc2cc1-c1nc2ccccc2[nH]1)NCc1ccc(F)cc1 [Compound 9r, 2-((3-(1H-benzo[d]imidazol-2-yl)quinolin-2-yl)thio)-N-(4-fluorobenzyl)acetamide]",≥ 200 µM,186 to 188 °C,–,–,–
"O=C(CSc1nc2ccccc2cc1-c1nc2ccccc2[nH]1)Nc1ccc(Cl)cc1 [Compound 9e, 2-((3-(1H-benzo[d]imidazol-2-yl)quinolin-2-yl)thio)-N-(4-chlorophenyl)acetamide]",≥ 200 µM,185 to 187 °C,–,–,–
"O=C(CSc1nc2ccccc2cc1-c1nc2ccccc2[nH]1)Nc1ccc2ccccc2c1 [Compound 9p, 2-((3-(1H-benzo[d]imidazol-2-yl)quinolin-2-yl)thio)-N-(naphthalen-2-yl)acetamide]",≥ 200 µM,–,17.7 ± 0.8 µM,–,–
"O=C(CSc1nc2ccccc2cc1-c1nc2ccccc2[nH]1)Nc1ccccc1F [Compound 9b, 2-((3-(1H-benzo[d]imidazol-2-yl)quinolin-2-yl)thio)-N-(2-fluorophenyl)acetamide]",≥ 200 µM,183 to 185 °C,–,around the twofold loss of potency,–
"O=C(CSc1nc2ccccc2cc1-c1nc2ccccc2[nH]1)NCc1ccccc1 [Compound 9q, 2-((3-(1H-benzo[d]imidazol-2-yl)quinolin-2-yl)thio)-N-benzylacetamide]",≥ 200 µM,183 to 185 °C,–,–,–
Cc1ccc(NC(=O)CSc2nc3ccccc3cc2-c2nc3ccccc3[nH]2)cc1 [Compound 9k],≥ 200 µM,181 to 183 °C,–,–,–
"O=C(CSc1nc2ccccc2cc1-c1nc2ccccc2[nH]1)Nc1cccc(Cl)c1 [Compound 9d, 2-((3-(1H-benzo[d]imidazol-2-yl)quinolin-2-yl)thio)-N-(3-chlorophenyl)acetamide]",≥ 200 µM,190 to 192 °C,–,–,competitive inhibition
"O=C(CSc1nc2ccccc2cc1-c1nc2ccccc2[nH]1)Nc1ccc([N+](=O)[O-])cc1 [Compound 9i, 2-((3-(1H-benzo[d]imidazol-2-yl)quinolin-2-yl)thio)-N-(4-nitrophenyl)acetamide]",≥ 200 µM,180 to 182 °C,–,–,–
"O=C(CSc1nc2ccccc2cc1-c1nc2ccccc2[nH]1)Nc1ccccc1Br [Compound 9f, 2-((3-(1H-benzo[d]imidazol-2-yl)quinolin-2-yl)thio)-N-(2-bromophenyl)acetamide]",≥ 200 µM,181 to 183 °C,–,–,–
"O=C(CSc1nc2ccccc2cc1-c1nc2ccccc2[nH]1)Nc1ccccc1 [Compound 9a, 2-((3-(1H-benzo[d]imidazol-2-yl)quinolin-2-yl)thio)-N-phenylacetamide]",≥ 200 µM,–,–,–,–
"O=C(CSc1nc2ccccc2cc1-c1nc2ccccc2[nH]1)Nc1ccc(Br)cc1 [Compound 9g, 2-((3-(1H-benzo[d]imidazol-2-yl)quinolin-2-yl)thio)-N-(4-bromophenyl)acetamide]",≥ 200 µM,185 to 187 °C,–,–,–
2-((3-(1H-benzo[d]imidazol-2-yl)naphthalen-2-yl)thio)-N-(4-fluorophenyl)acetamide [Compound 9c],≥ 200 µM,–,13.5 ± 0.6 µM,–,–
"Cc1cccc(C)c1NC(=O)CSc1nc2ccccc2cc1-c1nc2ccccc2[nH]1 [Compound 9o, 2-((3-(1H-benzo[d]imidazol-2-yl)quinolin-2-yl)thio)-N-(2,6-dimethylphenyl)acetamide]",≥ 200 µM,185 to 187 °C,–,–,–
"Cc1cccc(NC(=O)CSc2nc3ccccc3cc2-c2nc3ccccc3[nH]2)c1C [Compound 9n, 2-((3-(1H-benzo[d]imidazol-2-yl)quinolin-2-yl)thio)-N-(2,3-dimethylphenyl)acetamide]",≥ 200 µM,185 to 187 °C,–,–,–
